Where two headings read alike, the source gives them in different places.
Columns and labels:
d-U937 cells = assay: LPS-induced TNFα/IL-8 release in d-U937 cells; assay type: cell-based; conditions: Homo sapiens
Method: Cells are pre-incubated with final concentrations of test compound for 2 hr and are then stimulated with 0.1 μg/mL of LPS (from E. coli: O111:B4, Sigma) for 4 hr. The supernatant is collected for determination of TNFα and IL-8 concentrations by sandwich ELISA (Duo-set, R&D systems). […] The relative 50% effective concentration (REC50) is determined from the resultant concentration-response curve. The inhibition of IL-8 production is calculated at each concentration of test compound by comparison with vehicle control.

Syk = Syk (Homo sapiens (Human), UniProt P43405); assay: Syk enzyme inhibition (Z-LYTE FRET); assay type: biochemical
Method: (§1) The enzyme inhibitory activities of compounds disclosed herein are determined by FRET using synthetic peptides labelled with both donor and acceptor fluorophores (Z-LYTE, Invitrogen Ltd., Paisley, UK).
(§2) The relevant enzyme (3000 ng/mL or 2000 ng/mL respectively, 2.5 μL) is incubated with the test compound (either 4 μg/mL, 0.4 μg/mL, 0.04 μg/mL, or 0.004 μg/mL, 2.5 μL each) for 2 hr at RT. The FRET peptides (8 μM, 2.5 μL), and appropriate ATP solutions (2.5 μL, 800 μM for c-Src, and 60 μM ATP for Syk) are then added to the enzymes/compound mixtures and incubated for 1 hr. Development reagent (protease, 5 μL) is added for 1 hr prior to detection in a fluorescence microplate reader (Varioskan® Flash, ThermoFisher Scientific).
(§3) In all cases, the site-specific protease cleaves non-phosphorylated peptide only and eliminates the FRET signal. Phosphorylation levels of each reaction are calculated using the ratio of coumarin emission (donor) over fluorescein emission (acceptor), for which high ratios indicate high phosphorylation and low ratios indicate low phosphorylation levels.

HT29 cells = assay: IL-1β-induced IL-8 release in HT29 cells; assay type: cell-based; conditions: Homo sapiens, HT-29, read-out: IC50 Values for Inhibition of Cytokine Release HT29 cells IL-8
Method: HT29 cells, a human colon adenocarcinoma cell line, are plated in a 96 well plate (24 hrs) and pre-treated with compounds at the desired concentration for 2 hours before addition of 5 ng/mL of IL-1β (Abcam) for 24 hours. Supernatants are harvested for IL-8 quantification by Sandwich ELISA (Duo-set, R&D System). The IC50 is determined from the dose response curve.

p38 MAPKα = p38 MAPKα (Homo sapiens (Human), UniProt Q16539); assay: p38 MAPKα enzyme inhibition (Z-LYTE FRET, Method 2); assay type: biochemical
Chain of p38 MAPKα (Q16539 whole entry): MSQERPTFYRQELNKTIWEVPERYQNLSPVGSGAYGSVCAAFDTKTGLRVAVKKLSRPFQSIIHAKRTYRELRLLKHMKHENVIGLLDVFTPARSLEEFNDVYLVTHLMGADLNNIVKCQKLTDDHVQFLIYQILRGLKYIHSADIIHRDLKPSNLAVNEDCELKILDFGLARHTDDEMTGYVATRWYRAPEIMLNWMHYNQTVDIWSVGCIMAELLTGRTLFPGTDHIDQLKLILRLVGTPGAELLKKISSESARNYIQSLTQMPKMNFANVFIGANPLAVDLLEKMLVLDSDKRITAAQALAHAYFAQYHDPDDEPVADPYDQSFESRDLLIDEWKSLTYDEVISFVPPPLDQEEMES
Method: as §1
The inhibitory activities of test compounds against the p38 MAPKα isoform (MAPK14: Invitrogen), are evaluated indirectly by determining the level of activation/phosphorylation of the down-stream molecule, MAPKAP-K2. The p38 MAPKα protein (80 ng/mL, 2.5 μL) is mixed with the test compound (2.5 μL of either 4 μg/mL, 0.4 μg/mL, 0.04 μg/mL or 0.004 μg/mL) for 2 hr at RT. […] The mixture is incubated for 1 hr at RT. Development reagent (protease, 5 μL) is added for 1 hr prior to detection in a fluorescence microplate reader (Varioskan® Flash, ThermoFisher Scientific).
as §3

PBMCs [1] = assay: IL-2 and IFN gamma release in CD3/CD28 stimulated PBMC cells; assay type: cell-based; conditions: Homo sapiens
Outline: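 They were cultured with compound for 3 days. IL-2 and IFN-γ in supernatants were quantified by sandwich ELISA, and IC50 was derived from the dose-response curve.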

PBMCs [2] = assay: LPS-induced TNFα/IL-8 release in PBMC cells; assay type: cell-based; conditions: Homo sapiens, read-out: IC50 Values for Inhibition of Cytokine Release PBMCs IL-8
Outline: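 Healthy-donor PBMCs, isolated by density gradient, were pretreated with compound for 2 h and then stimulated with 1 ng/mL E. coli O111:B4 LPS for 24 h at 37 °C, 5% CO2. Supernatant IL-8 and TNFα were quantified by sandwich ELISA.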

GSK3α = GSK3α (Homo sapiens (Human), UniProt P49840); assay: GSK 3α enzyme inhibition (Z-LYTE FRET, Method 2); assay type: biochemical
Chain of GSK3α (P49840 whole entry): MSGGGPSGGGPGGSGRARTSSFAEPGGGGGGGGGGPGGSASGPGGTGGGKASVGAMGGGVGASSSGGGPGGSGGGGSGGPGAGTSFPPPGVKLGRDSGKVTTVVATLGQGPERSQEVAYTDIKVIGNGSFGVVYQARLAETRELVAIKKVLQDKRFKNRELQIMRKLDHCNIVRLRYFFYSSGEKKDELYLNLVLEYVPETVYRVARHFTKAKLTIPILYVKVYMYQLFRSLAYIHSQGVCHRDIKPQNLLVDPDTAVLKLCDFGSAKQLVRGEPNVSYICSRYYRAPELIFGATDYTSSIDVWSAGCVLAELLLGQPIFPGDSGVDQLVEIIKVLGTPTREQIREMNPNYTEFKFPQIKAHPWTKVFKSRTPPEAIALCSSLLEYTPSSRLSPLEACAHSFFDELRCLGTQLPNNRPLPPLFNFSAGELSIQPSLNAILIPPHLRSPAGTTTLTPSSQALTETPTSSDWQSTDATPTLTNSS
Outline: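 Z-LYTE FRET: GSK3α preincubated with compound 2 h at RT, then FRET peptide and ATP added (stocks 8 μM and 40 μM) for 1 h, followed by 1 h protease development. Compound stocks 4–0.004 μg/mL; phosphorylation from coumarin/fluorescein emission ratio.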

c-Src = c-Src (Homo sapiens (Human), UniProt P12931); assay: c-Src enzyme inhibition (Z-LYTE FRET); assay type: biochemical
Chain of c-Src (P12931 whole entry, looked up): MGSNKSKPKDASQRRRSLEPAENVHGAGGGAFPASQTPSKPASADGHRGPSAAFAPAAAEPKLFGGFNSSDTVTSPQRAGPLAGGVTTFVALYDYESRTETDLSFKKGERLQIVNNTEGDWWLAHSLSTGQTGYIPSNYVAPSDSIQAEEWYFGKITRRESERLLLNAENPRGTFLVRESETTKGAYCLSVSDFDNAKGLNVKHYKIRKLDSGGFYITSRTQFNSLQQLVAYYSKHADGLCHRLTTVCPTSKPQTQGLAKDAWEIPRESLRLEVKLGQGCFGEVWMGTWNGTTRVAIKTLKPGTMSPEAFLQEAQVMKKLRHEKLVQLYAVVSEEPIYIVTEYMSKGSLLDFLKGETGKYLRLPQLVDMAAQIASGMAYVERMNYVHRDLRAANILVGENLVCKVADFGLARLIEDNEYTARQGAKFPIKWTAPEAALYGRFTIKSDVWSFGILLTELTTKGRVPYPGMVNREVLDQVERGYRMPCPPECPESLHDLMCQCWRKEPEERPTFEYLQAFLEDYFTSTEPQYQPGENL
Method: as §1, §2, §3

TNBS-induced colitis = conditions: for LP inflammation / Ulcer grade: oral gavage BID, conducted over 2 days, mice; for inflammatory cell infiltrate in the reticular and laminar propria zone / ulcer grade and epithelial repair compared to the vehicle control: dosed orally at either 1 or 5 mg/kg
Method: On Day 0 of the study TNBS (200 μL) is administered intra-colonically via a plastic catheter followed by BID dosing of the vehicle, reference or test compound for 2 or 4 days. During the study animals are weighed every day and stool observations are made and recorded as a score, based on stool consistency. At the time of sacrifice on Day 2 (or Day 4) the large intestine is removed and the length and weight recorded. Sections of the colon are taken for either MPO analysis to determine neutrophil infiltration or for histopathology involving scoring to determine disease severity.

[3] = dU937, read-out: IC50 Values for Inhibition of Cytokine Release dU937 cells TNFα
[4] = read-out: IC50 Values for Inhibition of Cytokine Release PBMCs IFNγ
[5] = read-out: IC50 Values for Inhibition of Cytokine Release PBMCs IL-2
[6] = dU937, read-out: IC50 Values for Inhibition of Cytokine Release dU937 cells IL-8

SMILES | IC50 (d-U937 cells; [3]) | IC50 (Syk) | IC50 (HT29 cells) | IC50 (p38 MAPKα) | IC50 (PBMCs [1]; [4]) | IC50 (PBMCs [1]; [5]) | IC50 (PBMCs [2]) | IC50 (GSK3α) | IC50 (c-Src) | LP inflammation (TNBS-induced colitis; 1 mg/kg) | Ulcer grade (TNBS-induced colitis; 1 mg/kg) | LP inflammation (TNBS-induced colitis; 5 mg/kg) | Ulcer grade (TNBS-induced colitis; 5 mg/kg) | inflammatory cell infiltrate in the reticular and laminar propria zone (TNBS-induced colitis) | ulcer grade and epithelial repair compared to the vehicle control (TNBS-induced colitis) | IC50 (d-U937 cells; [6])
COc1ccc(-n2nc(C(C)(C)C)cc2NC(=O)Nc2ccc(Oc3ccnc(Nc4cccc(OS(C)(=O)=O)c4)n3)c3ccccc23)cn1 [Example 3, 3-(4-((4-(3-(3-(tert-Butyl)-1-(6-methoxypyridin-3-yl)-1H-pyrazol-5-yl)ureido)naphthalen-1-yl)oxy)pyrimidin-2-yl)amino)phenyl methanesulfonate] | 0.3 nM | 66 nM | 2.2 nM | 28 nM | 1.2 nM | 9.9 nM | 1.5 nM | 2540 nM |  |  |  |  |  |  |  | 
COc1cc(Nc2nccc(Oc3ccc(NC(=O)Nc4cc(C(C)C)nn4-c4ccc(C)cc4)c4ccccc34)n2)cc(OS(C)(=O)=O)c1 [Example 12, 3-((4-((4-(3-(3-Isopropyl-1-(p-tolyl)-1H-pyrazol-5-yl)ureido)naphthalen-1-yl)oxy)pyrimidin-2-yl)amino)-5-methoxyphenyl methanesulfonate] | 0.4 nM | 238 nM | 4.3 nM | 422 nM | 4.7 nM | 24.8 nM | 2.8 nM |  | 39 nM |  |  |  |  |  |  | 
Cc1ccc(-n2nc(C(C)C)cc2NC(=O)Nc2ccc(Oc3ccnc(Nc4cccc(N=S(C)(C)=O)c4)n3)c3ccccc23)cc1 [Example 14] |  |  | 7.9 nM |  |  |  | 2.4 nM |  |  |  |  |  |  |  |  | 
COc1cc(Nc2nccc(Oc3ccc(NC(=O)Nc4cc(C(C)C)nn4-c4ccc(C)cc4)c4ccccc34)n2)cc(S(=O)(=O)C2CC2)c1 [Example 18, 1-(4-((2-((3-(Cyclopropylsulfonyl)-5-methoxyphenyl)amino)pyrimidin-4-yl)oxy)naphthalen-1-yl)-3-(3-isopropyl-1-(p-tolyl)-1H-pyrazol-5-yl)urea] |  | 358 nM | 6.2 nM | 102 nM |  | 84.6 nM | 2.1 nM | 2900 nM | 27 nM | 2.8 ± 0.4 | 3.3 ± 0.4 | 2.6 ± 0.3 | 3.0 ± 0.5 | marked reduction | marked improvements | 
COc1cc(Nc2nccc(Oc3ccc(NC(=O)Nc4cc(C(C)C)nn4-c4ccc(C)cc4)c4ccccc34)n2)cc(SCCO)c1 [Example 22] |  | 134 nM | 5.1 nM | 114 nM |  | 30.7 nM | 2.3 nM |  | 47 nM | 2.6 ± 0.3 | 2.8 ± 0.4 | 3.8 ± 0.3 | 3.7 ± 0.4 | marked reduction | marked improvements | 
COc1cc(Nc2nccc(Oc3ccc(NC(=O)Nc4cc(C(C)(C)C)nn4-c4ccc(C)cc4)c4ccccc34)n2)cc(OCCCN2CCOCC2)c1 [Example 49, 1-(3-(tert-Butyl)-1-(p-tolyl)-1H-pyrazol-5-yl)-3-(4-((2-((3-methoxy-5-(3-morpholino-propoxy)phenyl)amino)pyrimidin-4-yl)oxy)naphthalen-1-yl)urea] |  | 20 nM | 2.3 nM | 175 nM | 1.2 nM | 54.7 nM | 1.9 nM | 7260 nM | 23 nM |  |  |  |  |  |  | 
COCCOCCOCCOc1cc(Nc2nccc(Oc3ccc(NC(=O)Nc4cc(C(C)(C)C)nn4-c4ccc(C)cc4)c(Cl)c3Cl)n2)cc(OC)c1 [Example 53, 1-(3-(tert-Butyl)-1-(p-tolyl)-1H-pyrazol-5-yl)-3-(2,3-dichloro-4-((2-((3-methoxy-5-(2-(2-(2-methoxyethoxyl)ethoxy)ethoxy)phenyl)amino)pyrimidin-4-yl)oxy)phenyl)urea] |  | 56 nM | 2.4 nM | 816 nM | 2.1 nM | 133 nM | 3.8 nM | > 10000 nM | 23 nM |  |  |  |  |  |  | 
COc1cc(Nc2nccc(Oc3ccc(NC(=O)Nc4cc(C(C)(C)C)nn4-c4ccc(C)cc4)c4ccccc34)n2)cc(SCCO)c1 [Example 55, 1-(3-(tert-Butyl)-1-(p-tolyl)-1H-pyrazol-5-yl)-3-(4-((2-((3-((2-hydroxyethyl)thio)-5-methoxyphenyl)amino)pyrimidin-4-yl)oxy)naphthalen-1-yl)urea] |  | 42 nM | 2.4 nM | 200 nM | 2 nM | 36.8 nM | 2 nM | 1230 nM |  |  |  |  |  |  |  | 
COc1cc(Nc2nccc(Oc3ccc(NC(=O)Nc4cc(C(C)(C)C)nn4-c4ccc(OC)nc4)c4ccccc34)n2)cc(S(=O)(=O)C2CC2)c1 [Example 61, 1-(3-(tert-Butyl)-1-(6-methoxypyridin-3-yl)-1H-pyrazol-5-yl)-3-(4-((2-((3-(cyclopropylsulfonyl)-5-methoxyphenyl)amino)pyrimidin-4-yl)oxy)naphthalen-1-yl)urea] |  |  | 4.8 nM | 301 nM | 1.9 nM | 42.4 nM | 2 nM | 3800 nM | 73 nM |  |  |  |  |  |  | 
COc1cc(Nc2nccc(Oc3ccc(NC(=O)Nc4cc(C(C)(C)C)nn4-c4ccc(C)cc4)c4ccccc34)n2)cc(OCCOCCOCCO)c1 [Example 62, 1-(3-(tert-Butyl)-1-(P-tolyl)-1H-pyrazol-5-yl)-3-(4-((2-((3-(2-(2-(2-hydroxyethoxy)ethoxy)ethoxy)-5-methoxyphenyl)amino)pyrimidin-4-yl)oxy)naphthalen-1-yl)urea] |  | 6 nM | 2.5 nM | 95 nM | 2.1 nM | 52.9 nM | 1.5 nM |  | 4 nM |  |  |  |  |  |  | 
COCCOCCOCCOc1cc(Nc2nccc(Oc3ccc(NC(=O)Nc4cc(C(C)(C)C)nn4-c4ccc(N(C)C)cc4)c4ccccc34)n2)cc(OC)c1 [Example 63, 1-(3-(tert-Butyl)-1-(4-(dimethylamino)phenyl)-1H-pyrazol-5-yl)-3-(4-((2-((3-methoxy-5-(2-(2-(2-methoxyethoxy)ethoxy)ethoxy)phenyl)amino)pyrimidin-4-yl)oxy)naphthalen-1-yl)urea] | 0.4 nM |  | 2 nM | 187 nM | 1.5 nM | 76.2 nM | 2 nM | 4820 nM | 13 nM |  |  |  |  |  |  | 0.6 nM
COc1cc(Nc2nccc(Oc3ccc(NC(=O)Nc4cc(C(C)(C)C)nn4-c4ccc(C)cc4)c(Cl)c3Cl)n2)cc(OCCOCCOCCO)c1 [Example 71, 1-(3-(tert-Butyl)-1-(p-tolyl)-1H-pyrazol-5-yl)-3-(2,3-dichloro-4-((2-((3-(2-(2-(2-hydroxyethoxyl)ethoxy)ethoxy)-5-methoxyphenyl)amino)pyrimidin-4-yl)oxy)phenyl)urea] | 1 nM | 23 nM |  | 740 nM | 1.1 nM | 60.8 nM | 1.8 nM | 7740 nM | 19 nM |  |  |  |  |  |  | 1.3 nM
